Data reported in patent US20080014133A1, “Extraction Of Radionuclides By Crown Ether-Containing Extractants” (priority 2004, published 2008).

Columns and labels:
Format in all cases: physicochemical
[1] = Radiation resistance of the extractants (gamma irradiation); conditions: Cs
Text: The radiation resistance of the extractants according to the invention used for extraction radionuclides of strontium or cesium was studied. For this purpose, reaction mixtures consisting of biphase water-organic systems containing extractants based on crown ethers DCH18C6 or DB21C7 in Fluoroheptanol n3 and aqueous nitrate waste solutions, and, for comparison, reaction mixtures containing extractants based on crown ethers Crown XVI or Crown XVII with a cation exchanger—dinanylnaphthalene of sulfonic acids in a matrix solution comprising tributyl phosphate and kerosene were irradiated with gamma-rays […] in a temperature-controlled cell of stainless steel with continuous agitation by bubbling. The maximum integrated radiation dose was equal to 285.3 kGr. The extractant samples were tested and the extraction characteristics were measured before and after the irradiation to determine a decrease of the distribution ratio DMe due to the radiological destruction of extractant components.

[2] = Extraction of cations of different metals (Table 8)
Text: A process of extraction of cations of different metals from aqueous nitrate solutions was studied by processing them using the extractants according to the invention containing DCH18C6 or DB21C7 in an organic solvent comprising: Fluoroheptanol n3—80% by volume and synthanol—20% by volume at a concentration of crown ethers of 0.05 mol/l and a content of nitric acid about of 190 g/l. For comparison, the data were used given in a patent specification (U.S. Pat. No. 4,749,518, A) describing similar tests of extractants containing Crown XVI or Crown XVII with a cation exchanger—dinanylnaphthalene sulfonic acid in a matrix solution containing tributyl phosphate and kerosene.
The solutions were contacted with the extractants according to the invention in temperature-controlled ([…]) separating funnels for 5 minutes at a ratio of organic and aqueous phases of 1:1. After settling within 60 minutes, the phases were separated, and the aqueous phase was analyzed to determine the concentration of the elements.

[3] = Interaction of extractants with sodium (organic/aqueous phase concentration)
Method: The characteristics of the extractants according to the invention in the process of extraction of sodium from acidic aqueous solutions of high-level waste were determined. For this purpose, the concentration of sodium in the organic and aqueous phases containing extractants based on DTBDB18C6 or DCH18C6 or DB21C7 in a concentration about of 0.05 mol/l in fluoroheptanol n3 were analyzed.

[4] = Influence of nitric acid concentration on extraction of sodium; conditions: crown ether about 0.1 mol/l in Fluoroheptanol n3
Method: Selected for study were extractants containing crown ethers: DB18C6, DTBDB18C6, DCH18C6 or DB21C7 in a concentration of about 0.1 mol/l in Fluoroheptanol n3. Used as experimental solutions were aqueous solutions of sodium nitrate whose concentration was determined using radiometric techniques on previously added aliquot of a sodium-22 isotope.

[5] = Solubility of crown ethers in water and nitric acid from extractants with different organic solvents
Method: The study of solubility of extractants according to the invention and the extractants containing similar crown ethers in other solvents in aqueous and nitrate solutions was carried out.
Taken for the tests were crown ethers containing DCH18C6 or DB21C7 in a concentration of about 0.1 mole/l in different organic solvents. The extractants were mixed with aqueous or nitrate solutions with a content of nitric acid 3 mole/l in a closed thermostatically controlled chamber for 3 hours. Then the obtained water-organic systems were separated. The aqueous part after settling down and filtering was analyzed for a content of crown ethers using photometric measurements.

[6] = Behaviour of crown ether in decane extraction system (Table 1 remarks); conditions: crown ether 0.1 mole/l in Decane
Method: Study was carried out for determining the distribution ratios of radionuclides, for example, strontium or cesium to be extracted by the extractants according to the invention containing various crown ethers as a complexing agent: bis(tert-butylbenzo)-18-crown-6 (subsequently referred to as DTBDB18C6), di-isooctylbenzo-18-crown-6 (subsequently referred to as DIODB18C6), bis(tert-butylcyclohexane-18-crown-6 (subsequently referred to as DTBDCH18C6), di-isooxyldicyclohexane-18-crown-6 (subsequently referred to as DIODCH18C6), bicyclohexane-18-crown-6 (subsequently referred to as DCH18C6) or dibenzo-21-crown-7 (subsequently referred to as DB21C7), in an organic solvent according to the invention: polyfluorinated telomeric alcohol 1,1,7-trihydrododecafluoroheptanol-1 (subsequently referred to as fluoroheptanol n3).
For comparison, the distribution ratios of strontium and cesium were determined using extractants containing similar crown ethers in another organic solvent (decane).
Taken for the tests were experimental aqueous nitrate solutions containing strontium and cesium in a concentration of 1 g/l with a content of nitric acid of about 3.0 mol/l.

[7] = initial 1.0 g/l, same extractant conditions
[8] = initial 10.0 g/l, same extractant conditions

Question: For `c1ccc2c(c1)OCCOCCOCCOc1ccccc1OCCOCCO2` [DB21C7, dibenzo-21-crown-7], which “Distribution ratio before irradiation” value [1] is on record?
Answer: 2.83

Question: What about the “Distribution ratio DMe after irradiation” value ([1]; dose 100.0 kGr (10^7 rad)) of the same molecule?
Answer: 2.83

Question: What about the “Distribution ratio after irradiation, % of original” value ([1]; dose 100.0 kGr (10^7 rad)) of the same molecule?
Answer: 100.0%

Question: What about the “Distribution ratio DMe after irradiation” value ([1]; dose 285.3 kGr) of the same molecule?
Answer: 2.65

Question: What about the “Distribution ratio after irradiation, % of original” value ([1]; dose 285.3 kGr) of the same molecule?
Answer: 93.8%

Question: And the “Distribution ratios, Pb” value ([2]; initial 0.05 g/l, same extractant conditions)?
Answer: 0.02

Question: What about the “Distribution ratios, Rb” value ([2]; initial 0.12 g/l, same extractant conditions) of the same molecule?
Answer: 0.02

Question: What about the “Distribution ratios, Pd” value ([2]; initial 0.3 g/l, same extractant conditions) of the same molecule?
Answer: 0.03

Question: What about the “Distribution ratios, Mn” value ([2]; initial 0.4 g/l, same extractant conditions) of the same molecule?
Answer: 0.04

Question: And the “Distribution ratios, Ru” value ([2]; initial 0.75 g/l, same extractant conditions)?
Answer: 0.004

Question: What about the “Distribution ratios, Ba” value ([2]; initial 1.0 g/l, crown ether 0.05 mol/l in Fluoroheptanol n3 80% / synthanol 20%, nitric acid about 190 g/l) of the same molecule?
Answer: 1.02

Question: And the “Distribution ratios, Cr” value [2, 7]?
Answer: 0.02

Question: What about the “Distribution ratios, Cs” value [2, 7] of the same molecule?
Answer: 1.8

Question: What about the “Distribution ratios, Sr” value [2, 7] of the same molecule?
Answer: 0.02

Question: What about the “Distribution ratios, Zr” value [2, 7] of the same molecule?
Answer: 0.038

Question: What about the “Distribution ratios, Ca” value ([2]; initial 2.0 g/l, same extractant conditions) of the same molecule?
Answer: 0.02

Question: What about the “Distribution ratios, Ni” value ([2]; initial 4.0 g/l, same extractant conditions) of the same molecule?
Answer: 0.03

Question: And the “Distribution ratios, Al” value ([2]; initial 6.0 g/l, crown ether 0.05 mol/l in Fluoroheptanol n3 80% / synthanol 20%, nitric acid about 190 g/l)?
Answer: 0.02

Question: And the “Distribution ratios, Fe” value [2, 8]?
Answer: 0.014

Question: And the “Distribution ratios, Na” value [2, 8]?
Answer: 0.047

Question: What about the “Distribution ratios, Rare-earth” value ([2]; initial 25.0 g/l, same extractant conditions) of the same molecule?
Answer: 0.04

Question: And the “Sodium concentration in the organic phase” value (from here on “Sodium concentration”) ([3]; sodium in the aqueous phase 0.01 mol/l, crown ether about 0.05 mol/l in fluoroheptanol n3)?
Answer: 0 mol/L

Question: What about the “Sodium concentration” value ([3]; sodium in the aqueous phase 0.1 mol/l, crown ether about 0.05 mol/l) of the same molecule?
Answer: 0.01 mol/L

Question: What about the “Sodium concentration” value ([3]; sodium in the aqueous phase 0.2 mol/l, crown ether about 0.05 mol/l) of the same molecule?
Answer: 0.018 mol/L

Question: And the “Sodium concentration” value ([3]; sodium in the aqueous phase 0.4 mol/l, crown ether about 0.05 mol/l)?
Answer: 0.035 mol/L

Question: What about the “Distribution ratios of sodium” value ([4]; nitric acid 0 mol/l) of the same molecule?
Answer: 0

Question: What about the “Distribution ratios of sodium” value ([4]; nitric acid 0.1 mol/l) of the same molecule?
Answer: 0

Question: And the “Distribution ratios of sodium” value ([4]; nitric acid 0.5 mol/l)?
Answer: 0.005

Question: What about the “Distribution ratios of sodium” value ([4]; nitric acid 1.0 mol/l) of the same molecule?
Answer: 0.01

Question: And the “Distribution ratios of sodium” value ([4]; nitric acid 3.0 mol/l)?
Answer: 0.1

Question: What about the “Distribution ratios of sodium” value ([4]; nitric acid 5.0 mol/l) of the same molecule?
Answer: 0.12

Question: What about the “Concentration of crown ether in an aqueous phase” value (“Concentration of crown ether” for short) ([5]; solvent 2,2-dihydrotrifluoroethyl pentafluoroethyl ether, H2O) of the same molecule?
Answer: 0.071 mol/l × 10^−3

Question: And the “Concentration of crown ether” value ([5]; solvent 2,2-dihydrotrifluoroethyl pentafluoroethyl ether, HNO3 3 mole/l)?
Answer: 0.112 mol/l × 10^−3

Question: And the “Concentration of crown ether” value ([5]; solvent Fluoroheptanol n3, H2O)?
Answer: <0.025 mol/l × 10^−3

Question: And the “Concentration of crown ether” value ([5]; solvent Fluoroheptanol n3, HNO3 3 mole/l)?
Answer: 0.068 mol/l × 10^−3

Question: What about the “Concentration of crown ether” value ([5]; solvent Tetrachloroethane, H2O) of the same molecule?
Answer: 0.173 mol/l × 10^−3

Question: What about the “Concentration of crown ether” value ([5]; solvent Tetrachloroethane, HNO3 3 mole/l, crown ether about 0.1 mole/l, 3 hours) of the same molecule?
Answer: 0.159 mol/l × 10^−3

Question: And the Remarks ([5]; solvent Tetrachloropropane)?
Answer: Insoluble

Question: What about the “Concentration of crown ether” value ([5]; solvent Trichlorethylene, H2O) of the same molecule?
Answer: 0.188 mol/l × 10^−3

Question: What about the “Concentration of crown ether” value ([5]; solvent Trichlorethylene, HNO3 3 mole/l) of the same molecule?
Answer: 0.218 mol/l × 10^−3

Question: And the “Concentration of crown ether” value ([5]; solvent Trichlorobenzene, H2O)?
Answer: 0.168 mol/l × 10^−3

Question: What about the “Concentration of crown ether” value ([5]; solvent Trichlorobenzene, HNO3 3 mole/l) of the same molecule?
Answer: 0.173 mol/l × 10^−3

Question: And the Remarks [6]?
Answer: Is insoluble
